Laboratory results as given in publication PMC11477289, “Low-Basicity 5-HT6 Receptor Ligands from the Group of Cyclic Arylguanidine Derivatives and Their Antiproliferative Activity Evaluation” (International Journal of Molecular Sciences, 2024).
“And” between values parts separate entries of the source, which are not always exact repeats. Equal values may be shown once.

Experiments:
human 5-HT6 = target: T1, human 5-HT6 (Homo sapiens, UniProt P50406); test: [3H]-LSD radioligand binding assay, 5-HT6R; conditions: HEK293 expressing human 5-HT6R, read-out: 5-HT6 Ki
T1 construct: expressed in transfected cells
T1 sequence (P50406 whole entry): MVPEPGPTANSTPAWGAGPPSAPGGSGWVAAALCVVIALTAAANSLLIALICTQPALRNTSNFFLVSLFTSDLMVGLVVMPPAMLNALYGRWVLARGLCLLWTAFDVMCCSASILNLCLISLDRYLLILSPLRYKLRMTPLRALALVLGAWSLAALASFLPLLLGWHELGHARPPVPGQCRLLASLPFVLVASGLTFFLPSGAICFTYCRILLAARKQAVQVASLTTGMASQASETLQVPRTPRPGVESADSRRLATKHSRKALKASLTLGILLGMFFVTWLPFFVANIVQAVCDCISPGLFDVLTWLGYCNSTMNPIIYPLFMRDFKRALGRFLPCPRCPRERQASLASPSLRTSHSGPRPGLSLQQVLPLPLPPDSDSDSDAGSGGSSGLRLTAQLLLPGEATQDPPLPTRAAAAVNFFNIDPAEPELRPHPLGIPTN
Procedure: Next, the ligands’ affinity for the 5-HT6 receptors was evaluated in the [^3H]-LSD radioligand binding assay. Experiments were performed in a stable HEK293 cell line expressing the human 5-HT6R.
The pellets were stored at −80 °C.

[1] = tested on: MCF7 breast carcinoma cell line; test: Antiproliferative activity (MTS), MCF7; conditions: Homo sapiens, MCF7, 72 h, read-out: IC50 Values MCF7
U87MG glioblastoma cells = test: Antiproliferative activity (MTS), U87MG; conditions: Homo sapiens, U-87 MG, 72 h, read-out: IC50 Values U87MG
U-251 glioblastoma cells = test: Antiproliferative activity (MTS), U-251; conditions: Homo sapiens, U-251, 72 h, read-out: IC50 Values U-251
[2] = tested on: 1321N1 astrocytoma cell line; test: Antiproliferative activity (MTS), 1321N1; conditions: Homo sapiens, 1321-N1, 72 h, read-out: IC50 Values 1321N1
[3] = tested on: LN-229 glioblastoma cell line; test: Antiproliferative activity (MTS), LN-229; conditions: Homo sapiens, LN-229, 72 h, read-out: IC50 Values LN-229
[4] = tested on: AsPC-1 pancreas adenocarcinoma cell line; test: Antiproliferative activity (MTS), AsPC-1; conditions: Homo sapiens, ASPC1, 72 h, read-out: IC50 Values AsPC-1
[5] = Chromatographic hydrophobicity index on C18 column (lipophilicity); type: physicochemical
[6] = Affinity to phospholipids, IAM column (CHI IAM); type: physicochemical; conditions: IAM.PC.DD2 column, pH 7.4
[7] = target: human serum albumin (HSA) (Homo sapiens, UniProt P02768); test: Binding to HSA, Chiralpak HSA column; conditions: Chiralpak HSA column
Chain of human serum albumin (HSA) (P02768 25-609): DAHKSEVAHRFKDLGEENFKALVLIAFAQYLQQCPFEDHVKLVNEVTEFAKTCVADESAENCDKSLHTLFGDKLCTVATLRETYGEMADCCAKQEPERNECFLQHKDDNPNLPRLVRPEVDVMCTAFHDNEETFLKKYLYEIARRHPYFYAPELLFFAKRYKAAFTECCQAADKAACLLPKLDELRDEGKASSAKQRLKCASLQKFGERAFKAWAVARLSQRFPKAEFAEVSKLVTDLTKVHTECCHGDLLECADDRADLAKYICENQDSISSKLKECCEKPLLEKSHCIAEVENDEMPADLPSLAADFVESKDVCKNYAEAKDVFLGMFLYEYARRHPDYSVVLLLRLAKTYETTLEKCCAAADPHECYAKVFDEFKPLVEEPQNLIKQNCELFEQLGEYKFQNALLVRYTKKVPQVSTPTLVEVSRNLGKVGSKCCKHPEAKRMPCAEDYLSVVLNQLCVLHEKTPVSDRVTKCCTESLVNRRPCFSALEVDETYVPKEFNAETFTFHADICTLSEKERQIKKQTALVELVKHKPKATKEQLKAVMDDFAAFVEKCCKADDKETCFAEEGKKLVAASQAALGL
From the text: We began with an assay for lipophilicity, affinity for phospholipids (for 40 compounds), and drug binding to human serum albumin (HSA) (for 20 compounds), using chromatographic protocols developed by Valko [46] and implemented in our laboratory. Compounds with the highest affinity for 5-HT6R and those showing the most promising ADMET parameters, including the possibility of BBB penetration, DDI, and lipophilicity, determined in silico in SwissADME [45], were selected for testing. These methods allowed the determination of chromatographic hydrophobicity indices (CHIs), binding to HSA (%HSA), and phospholipids (CHIIAM) using a single-gradient elution experiment and comparison to reference substances.
The use of columns modified with plasma proteins, such as HSA, also allows for the estimation of binding to HSA, which is the most dominant plasma protein (PP). Binding to PP affects drug pharmacokinetics, such as distribution, half-life, and clearance.
The mobile phase flow rate was 1.5 mL/min, and the column was maintained at 30 °C. • Chiralpak® HSA (50 mm × 4 mm; 5 µm with safety guard column; Daicel Chiral Technologies, West Chester, PA, USA), mobile phase A: 50 mM ammonium acetate, mobile phase B: HPLC-grade isopropanol (VWR International, Leuven, Belgium). For the first 15 min, the linear gradient from 0 to 20% isopropanol was applied and then held at 20% isopropanol for 12 min. In the last 5 min of the sequence, the mobile phase mixture received a pure ammonium acetate solution. The column temperature was held at 30 °C, whereas the flow rate was 0.9 mL/min.
The reference substances for the calibration of HSA, C18, and IAM columns were purchased, respectively: acetanilide, butyrophenone, diclofenac, and octanonophenone (Alfa Aesar, Haverhill, MA, USA); acetophenone, benzimidazole, colchicine, indole, indometacin, paracetamol, and theophylline (Sigma-Aldrich, Steinheim, Germany); nicardipine and nizatidine (Cayman Chemical, Ann Arbor, MI, USA); carbamazepine, heptanophenone, hexanophenone, propiophenone, and valerophenone (Acros Organic, Pittsburg, PA, USA). Before chromatographic experiments, solutes were dissolved in dimethyl sulfoxide (Avantor Performance Materials Poland S.A., Gliwice, Poland) to obtain a 200 µg/mL concentration. The detection was performed in the UV region at the wavelength from 190 nm to 300 nm. The injected volume was 5 μL, and each compound was analyzed in triplicate.

Ki (human 5-HT6) | melting point | IC50 [1] | IC50 (U87MG glioblastoma cells) | IC50 (U-251 glioblastoma cells) | IC50 [2] | IC50 [3] | IC50 [4] | CHI C18 pH 2.6 [5] | CHI C18 pH 7.4 [5] | CHI C18 pH 10.5 [5] | CHI IAM [6] | %HSA [7] | logKHSA [7] | acid–base properties ([5]; comparison of CHI values at different pH levels) | Compound
0.273 ± 0.068 µM | 178 to 180 °C | > 25 µM | > 25 µM | > 25 µM | > 25 µM | > 25 µM | > 25 µM |  |  |  |  |  |  |  | O=S(=O)(NC1=Nc2ccccc2CCN1)c1cccc2ccccc12 [PR 78, N -(4,5-dihydro-3H-1,3-benzodiazepin-2-yl)naphthalene-1-sulfonamide]
0.521 ± 0.13 µM | 176 to 180 °C | > 25 µM | > 25 µM | > 25 µM | > 25 µM | > 25 µM | > 25 µM | 83.7 | 83.2 | 87.3 | 36.6 | 91.3% | 1.0 |  | O=S(=O)(NC1=Nc2ccccc2CN1)c1cccc(Cl)c1 [PR 19, 3-chloro-N-(3,4-dihydroquinazolin-2-yl)benzene-1-sulfonamide]
0.325 ± 0.081 µM | > 315 °C | > 25 µM | > 25 µM | > 25 µM | > 25 µM | > 25 µM | > 25 µM | 78.8 | 76.7 | 58.4 | 39.3 | 95.7% | 1.3 | acidic | O=S(=O)(Nc1nc2ccccc2[nH]1)c1cccc2ccccc12 [PR 11, N -(1H-1,3-benzodiazol-2-yl)naphthalene-1-sulfonamide]
0.972 ± 0.242 µM | 192 to 195 °C | > 25 µM |  | > 25 µM |  | > 25 µM | > 25 µM | 99.1 | 97.7 | 100.4 | 45.2 |  |  |  | O=S(=O)(NC1=Nc2ccccc2CN1)c1ccc2c(Cl)cccc2c1 [PR 30, 5-chloro-N-(3,4-dihydroquinazolin-2-yl)naphthalene-2-sulfonamide]
0.189 ± 0.042 µM | 217 to 223 °C | > 25 µM | > 25 µM | > 25 µM | > 25 µM | > 25 µM | > 25 µM | 111.2 | 109.2 | 112.5 | 51.6 | 99.5% | 1.8 |  | O=S(=O)(NC1=Nc2cccc(Cl)c2CN1)c1ccc(Cl)c2ccccc12 [PR 53, 4-chloro-N-(5-chloro-3,4-dihydroquinazolin-2-yl)naphthalene-1-sulfonamide]
1.04 ± 0.26 µM | 215 to 219 °C |  | 17 ± 0.4 µM |  | 13.4 ± 0.8 µM |  |  | 125.7 | 123 and 123.9 | 128.1 | 55.5 | 99.9% | 2.0 |  | CC1NC(NS(=O)(=O)c2ccc(Cl)c3ccccc23)=Nc2c(Cl)cc(Cl)cc21 (stereo not shown) [PR 74, 4-chloro-N-(6,8-dichloro-4-methyl-3,4-dihydroquinazolin-2-yl)naphthalene-1-sulfonamide]
0.341 ± 0.076 µM | 275 to 277 °C |  | > 25 µM |  | > 25 µM |  |  | 96.5 | 95.3 | 98.1 | 44.0 | 97.8% | 1.5 |  | O=S(=O)(NC1=Nc2ccc(Cl)cc2CN1)c1cccc2ccccc12 [PR 47, N -(6-chloro-3,4-dihydroquinazolin-2-yl)naphthalene-1-sulfonamide]
0.268 ± 0.063 µM | 188 to 191 °C |  | > 25 µM |  | > 25 µM |  |  | 100.1 | 99.2 | 101.6 | 45.5 | 97.9% | 1.5 |  | O=S(=O)(NC1=Nc2ccccc2CN1)c1ccc(Cl)c2ccccc12 [PR 42, 4-chloro-N-(3,4-dihydroquinazolin-2-yl)naphthalene-1-sulfonamide]
0.282 ± 0.065 µM | 210 to 212 °C |  | > 25 µM |  | > 25 µM |  |  | 98.2 | 96.5 | 99.5 | 44.3 | 98.3% | 1.6 |  | O=S(=O)(NC1=Nc2ccccc2CN1)c1cccc2cc(Cl)ccc12 [PR 44, 6-chloro-N-(3,4-dihydroquinazolin-2-yl)naphthalene-1-sulfonamide]
29.4 ± 7.36 µM |  | > 25 µM | > 25 µM | > 25 µM | > 25 µM | > 25 µM | > 25 µM |  |  |  |  |  |  |  | CC1NC(NS(=O)(=O)c2ccc3ccccc3c2)=Nc2ccc(Br)cc21 (stereo not shown) [PR 36, N -(6-bromo-4-methyl-3,4-dihydroquinazolin-2-yl)naphthalene-2-sulfonamide]
9.85 ± 2.46 µM | 161 to 163 °C |  | > 25 µM |  | > 25 µM |  |  | 94.2 | 93.2 | 95.0 | 38.7 | 93.7% | 1.1 |  | O=S(=O)(NC1=Nc2ccccc2CN1)c1ccc(OC(F)(F)F)cc1 [PR 17, N -(3,4-dihydroquinazolin-2-yl)-4-(trifluoromethoxy)benzene-1-sulfonamide]
0.412 ± 0.095 µM | 233 to 237 °C |  | > 25 µM |  | > 25 µM |  |  | 93.1 | 91.8 | 94.2 | 41.4 | 97.3% | 1.4 |  | Cc1cccc2c1CNC(NS(=O)(=O)c1cccc3ccccc13)=N2 [PR 61, N -(5-methyl-3,4-dihydroquinazolin-2-yl)naphthalene-1-sulfonamide]
0.172 ± 0.041 µM | 245 to 249 °C | > 25 µM | > 25 µM | > 25 µM | > 25 µM | > 25 µM | > 25 µM | 92.8 | 90.8 | 96.6 | 41.4 | 97.3% | 1.4 |  | COc1cccc2c1CNC(NS(=O)(=O)c1cccc3ccccc13)=N2 [PR 58, N -(5-methoxy-3,4-dihydroquinazolin-2-yl)naphthalene-1-sulfonamide]
